From ChEMBL document CHEMBL5257108, “Phthalazinone-based lactams and cyclic ureas as ROCK2 selective inhibitors” (Bioorg Med Chem Lett, 2023)

Assays:
[1] = molecular target: Rho-associated protein kinase 2 (Homo sapiens, UniProt O75116); assay: Inhibition of ROCK2 (unknown origin)
[2] = molecular target: Rho-associated protein kinase 1 (Homo sapiens, UniProt Q13464); assay: Inhibition of ROCK1 (unknown origin)
Homo sapiens = species: Homo sapiens; assay: Selectivity ratio of IC50 for inhibition of ROCK2 (unknown origin) to IC50 for inhibition of ROCK1 (unknown origin)

Chain of Rho-associated protein kinase 1 (Q13464 whole entry): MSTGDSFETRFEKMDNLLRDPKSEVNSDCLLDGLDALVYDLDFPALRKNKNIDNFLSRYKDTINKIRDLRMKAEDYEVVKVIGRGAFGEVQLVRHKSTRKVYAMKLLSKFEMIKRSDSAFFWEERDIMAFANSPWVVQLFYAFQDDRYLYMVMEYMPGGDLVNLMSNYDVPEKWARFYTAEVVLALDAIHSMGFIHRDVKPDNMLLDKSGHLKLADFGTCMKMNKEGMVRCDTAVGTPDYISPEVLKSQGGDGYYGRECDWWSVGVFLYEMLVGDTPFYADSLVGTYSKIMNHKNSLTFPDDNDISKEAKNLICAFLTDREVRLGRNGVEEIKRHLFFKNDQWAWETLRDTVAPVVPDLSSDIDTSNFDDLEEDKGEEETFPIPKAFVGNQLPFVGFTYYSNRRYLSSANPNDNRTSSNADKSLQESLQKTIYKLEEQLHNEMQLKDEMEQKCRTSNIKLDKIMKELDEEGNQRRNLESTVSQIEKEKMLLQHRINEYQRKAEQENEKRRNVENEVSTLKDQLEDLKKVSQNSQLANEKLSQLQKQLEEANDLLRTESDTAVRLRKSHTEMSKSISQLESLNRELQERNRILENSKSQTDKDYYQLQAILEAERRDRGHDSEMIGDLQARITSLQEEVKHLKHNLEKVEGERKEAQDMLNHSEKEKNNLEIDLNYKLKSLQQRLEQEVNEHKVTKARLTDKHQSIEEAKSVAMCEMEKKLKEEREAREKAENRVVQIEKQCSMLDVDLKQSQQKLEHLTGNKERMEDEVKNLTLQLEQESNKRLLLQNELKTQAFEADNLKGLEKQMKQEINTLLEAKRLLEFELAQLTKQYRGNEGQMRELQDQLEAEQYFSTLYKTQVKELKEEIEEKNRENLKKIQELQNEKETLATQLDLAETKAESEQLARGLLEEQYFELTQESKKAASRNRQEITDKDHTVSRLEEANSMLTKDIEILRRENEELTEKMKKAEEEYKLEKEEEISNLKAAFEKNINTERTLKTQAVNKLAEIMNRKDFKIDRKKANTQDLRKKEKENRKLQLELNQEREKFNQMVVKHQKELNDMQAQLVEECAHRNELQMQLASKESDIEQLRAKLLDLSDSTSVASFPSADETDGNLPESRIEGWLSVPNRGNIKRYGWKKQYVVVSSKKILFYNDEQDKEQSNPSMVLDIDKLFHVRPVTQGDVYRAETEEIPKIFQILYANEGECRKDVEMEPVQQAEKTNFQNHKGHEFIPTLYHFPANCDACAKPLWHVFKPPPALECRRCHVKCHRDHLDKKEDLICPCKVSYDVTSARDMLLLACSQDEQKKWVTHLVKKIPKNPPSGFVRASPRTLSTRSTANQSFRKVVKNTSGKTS
Chain of Rho-associated protein kinase 2 (O75116 whole entry): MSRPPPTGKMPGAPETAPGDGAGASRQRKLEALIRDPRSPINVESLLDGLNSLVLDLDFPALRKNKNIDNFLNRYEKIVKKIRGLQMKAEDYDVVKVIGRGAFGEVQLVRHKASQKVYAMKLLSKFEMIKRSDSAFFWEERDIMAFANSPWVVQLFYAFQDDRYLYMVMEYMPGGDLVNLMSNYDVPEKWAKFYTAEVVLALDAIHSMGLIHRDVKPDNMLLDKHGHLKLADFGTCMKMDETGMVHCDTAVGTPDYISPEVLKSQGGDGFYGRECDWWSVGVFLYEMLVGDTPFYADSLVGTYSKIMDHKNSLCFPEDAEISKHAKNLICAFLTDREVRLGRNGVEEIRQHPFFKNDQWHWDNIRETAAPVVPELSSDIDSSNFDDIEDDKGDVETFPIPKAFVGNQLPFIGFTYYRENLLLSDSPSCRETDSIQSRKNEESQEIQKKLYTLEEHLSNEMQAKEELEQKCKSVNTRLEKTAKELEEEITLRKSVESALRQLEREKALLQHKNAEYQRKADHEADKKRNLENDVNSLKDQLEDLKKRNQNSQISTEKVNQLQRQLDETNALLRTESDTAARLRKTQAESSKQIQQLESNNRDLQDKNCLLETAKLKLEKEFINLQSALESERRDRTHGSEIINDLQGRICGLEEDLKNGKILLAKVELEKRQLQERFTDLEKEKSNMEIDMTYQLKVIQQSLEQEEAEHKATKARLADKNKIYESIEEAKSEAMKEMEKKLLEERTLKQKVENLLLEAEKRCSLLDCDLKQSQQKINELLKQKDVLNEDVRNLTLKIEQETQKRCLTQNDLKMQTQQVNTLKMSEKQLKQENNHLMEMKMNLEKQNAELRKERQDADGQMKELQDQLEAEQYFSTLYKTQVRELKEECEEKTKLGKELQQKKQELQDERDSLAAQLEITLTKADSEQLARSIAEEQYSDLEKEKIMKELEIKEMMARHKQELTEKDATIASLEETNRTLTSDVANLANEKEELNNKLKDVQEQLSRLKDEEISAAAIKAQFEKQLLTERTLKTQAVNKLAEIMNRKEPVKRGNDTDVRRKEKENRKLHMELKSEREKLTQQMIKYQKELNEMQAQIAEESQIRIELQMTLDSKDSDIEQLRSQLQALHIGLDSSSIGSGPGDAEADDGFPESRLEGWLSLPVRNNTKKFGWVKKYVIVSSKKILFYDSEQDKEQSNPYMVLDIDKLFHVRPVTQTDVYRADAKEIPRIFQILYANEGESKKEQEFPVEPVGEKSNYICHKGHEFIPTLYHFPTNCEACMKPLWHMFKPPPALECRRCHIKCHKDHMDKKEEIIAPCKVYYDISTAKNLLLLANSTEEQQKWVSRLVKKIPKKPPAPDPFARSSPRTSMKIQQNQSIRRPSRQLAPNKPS

Row | IC50 [1] | IC50 [2] | Ratio IC50 (Homo sapiens) | SMILES
1 | 350 nM | > 2000 nM | – | O=C1C(c2ccccc2)CCN1c1ccc(-c2n[nH]c(=O)c3ccccc23)cc1 (centres undefined)
2 | 300 nM | > 2000 nM | – | O=c1[nH]nc(-c2ccc(-n3ncn(Cc4ccccc4)c3=O)cc2)c2ccccc12
3 | 7.4 nM | 115 nM | – | Cc1nc2ccc(NC3CCN(c4ccc(-c5n[nH]c(=O)c6ccccc56)cc4)C3=O)cc2s1 (centres undefined)
4 | 6.3 nM | 100 nM | – | O=C1C(Oc2cccc(OC(F)(F)F)c2)CCN1c1ccc(-c2n[nH]c(=O)c3ccccc23)cc1 (centres undefined)
5 | 490 nM | 1520 nM | – | O=C1CC(c2ccccc2)CN1c1ccc(-c2n[nH]c(=O)c3ccccc23)cc1 (centres undefined)
6 | 60 nM | 230 nM | – | O=C1OC(c2ccccc2)CN1c1ccc(-c2n[nH]c(=O)c3ccccc23)cc1 (centres undefined)
7 | 56 nM | > 2000 nM | – | O=C1N(Cc2ccccc2)CCN1c1ccc(-c2n[nH]c(=O)c3ccccc23)cc1
8 | 16 nM | 430 nM | – | CS(=O)(=O)c1cccc(NC2CCN(c3ccc(-c4n[nH]c(=O)c5ccccc45)cc3)C2=O)c1 (centres undefined)
9 | 1400 nM | > 2000 nM | – | O=C1C(NCc2ccccc2)CCN1c1ccc(-c2n[nH]c(=O)c3ccccc23)cc1 (centres undefined)
10 | 2 nM | 330 nM | – | O=C1C(Nc2cccc(OC(F)F)c2)CCN1c1ccc(-c2n[nH]c(=O)c3ccccc23)cc1 (racemic)
11 | 34 nM | 950 nM | – | O=C1C(Nc2ccccc2)CCN1c1ccc(-c2n[nH]c(=O)c3ccccc23)cc1 (centres undefined)
12 | 15 nM | 990 nM | – | O=C1C(Nc2cccc(OC(F)F)c2)CCN1c1ccc(-c2n[nH]c(=O)c3ccccc23)cc1 (stereo in doubt; 21)
13 | 23 nM | 1050 nM | – | COc1cccc(NC2CCN(c3ccc(-c4n[nH]c(=O)c5ccccc45)cc3)C2=O)c1 (centres undefined)
14 | 1770 nM | > 2000 nM | – | O=C1C(NC2CCCC2)CCN1c1ccc(-c2n[nH]c(=O)c3ccccc23)cc1 (centres undefined)
15 | 5.2 nM | 240 nM | – | O=C1N(c2ccccc2)CCN1c1ccc(-c2n[nH]c(=O)c3ccccc23)cc1
16 | 1 nM | – | 20 | O=C(Nc1ccc(-c2n[nH]c(=O)c3ccccc23)cc1)N1CCc2ccccc21
17 | 370 nM | > 2000 nM | – | O=C1C(c2ccc(-c3n[nH]c(=O)c4ccccc34)cc2)CCN1c1ccccc1 (centres undefined)
18 | 7 nM | 340 nM | – | O=C(Cc1ccc(-c2n[nH]c(=O)c3ccccc23)cc1)N1CCc2ccccc21
19 | 18 nM | 380 nM | – | CC(C)Oc1cccc(NC2CCN(c3ccc(-c4n[nH]c(=O)c5ccccc45)cc3)C2=O)c1 (centres undefined)
20 | 19 nM | 200 nM | – | O=C1N(c2ccc(-c3n[nH]c(=O)c4ccccc34)cc2)CCN1c1cccnc1
21 | 2.5 nM | 200 nM | – | O=C1C(Nc2cccc(OC(F)F)c2)CCN1c1ccc(-c2n[nH]c(=O)c3ccccc23)cc1 (stereo in doubt; 22)
22 | 5.6 nM | 270 nM | – | O=C1C(Nc2cccc(OC(F)(F)F)c2)CCN1c1ccc(-c2n[nH]c(=O)c3ccccc23)cc1 (centres undefined)
